Read-outs that look alike come from different tables or passages of the source.
Assays:
[1] = cited from earlier work
[2] = reported by EP 965 343; cited from earlier work
[3] = particles having diameter lower than or equal to 85 μm, aqueous solutions at physiological pH, EP 965 343; cited from earlier work
water solubility = assay type: physicochemical; conditions: particles having mean diameter D[4,3] higher than 85 μm
[4] = hygroscopicity / absorption of atmospheric humidity (water content by Karl-Fischer); assay type: physicochemical; conditions: particles having mean diameter D[4,3] higher than 85 μm (150 μm vs known 50 μm sample, 25° C., 50% relative humidity, FIG. 2)
Description: The samples water content was determined by the known Karl—Fischer technique. “Approximatively” and “about” herein mean around ±10% of the indicated value.

[5] = cited from earlier work; remark: listed apart in the source

water solubility (water solubility)	SMILES	permeability through biological membranes [1]	water solubility [2]	amount of the compound that dissolves within 45 minutes [3]	resistance to absorption of atmospheric humidity ([4]; listed as Anhydrous ziprasidone hydrochloride)	resistance to absorption of atmospheric humidity ([4]; hydrochloride)	hygroscopicity ([5]; exposed to air, spontaneously converts to the hydrate form)	hygroscopicity ([5]; particles with diameter lower than or equal to 85 μm)
	Cl.O=C1Cc2cc(CCN3CCN(c4nsc5ccccc45)CC3)c(Cl)cc2N1 [ziprasidone hydrochloride, 5-(2-(4-(1,2-benzisothiazol-3-yl)-1-piperazinyl)-ethyl)-6-chloro-1,3-dihydro-2H-indol-2-one hydrochloride]	high permeability	sparingly water-soluble	at least 70%				
substantially unchanged	Cl.O=C1Cc2cc(CCN3CCN(c4nsc5ccccc45)CC3)c(Cl)cc2N1 [anhydrous ziprasidone hydrochloride]				higher resistance to the absorption of atmospheric humidity	improved resistance to atmospheric humidity	highly hygroscopic	high hygroscopicity

Source: patent US7563794B2, “Ziprasidone free from colored impurities and a process for its preparation” (Dipharma Francis S.r.l., priority 2005, dated 2009)
